ChEMBL document CHEMBL1201862, “PubChem BioAssay data set” (2004)
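Exposure lasted 48 hours, with cells grown in 96-well plates and compounds tested at five concentrations. GI50 = concentration required for 50% inhibition of growth.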 Calls of active or inactive are those of the source. Cut-off read from the data, not from the text of the source: active = GI50 up to about 1.1 µM and inactive = higher.

Tests used:
Assay in all cases: growth of human tumour cells (NCI), 48 h
MDA-N = tested on: MDA-N
HCT-116 = tested on: HCT-116
MCF7 = tested on: MCF7
HT-29 = tested on: HT-29
A549 = tested on: A549
SNB-75 = tested on: SNB-75
BT-549 = tested on: BT-549
SK-MEL-5 = tested on: SK-MEL-5
U-251 = tested on: U-251
SF-539 = tested on: SF-539
OVCAR-5 = tested on: OVCAR-5
NCI-H460 = tested on: NCI-H460
DU-145 = tested on: DU-145
RPMI-8226 = tested on: RPMI-8226
M14 = tested on: M14
MDA-MB-435 = tested on: MDA-MB-435
SN12C = tested on: SN12C
NCI/ADR-RES = tested on: NCI/ADR-RES
SW-620 = tested on: SW-620
SK-OV-3 = tested on: SK-OV-3

SMILES | GI50 (MDA-N) | GI50 (HCT-116) | GI50 (MCF7) | GI50 (HT-29) | GI50 (A549) | GI50 (SNB-75) | GI50 (BT-549) | GI50 (SK-MEL-5) | GI50 (U-251) | GI50 (SF-539) | GI50 (OVCAR-5) | GI50 (NCI-H460) | GI50 (DU-145) | GI50 (RPMI-8226) | GI50 (M14) | GI50 (MDA-MB-435) | GI50 (SN12C) | GI50 (NCI/ADR-RES) | GI50 (SW-620) | GI50 (SK-OV-3)
CN(C)Cc1c[nH]c2ncnc(O)c12 | 23.1 µM (inactive) | 22.4 µM (inactive) | 24.7 µM (inactive) | 28.2 µM (inactive) | 86.5 µM (inactive) | 33.3 µM (inactive) | > 100 µM (inactive) | 53.7 µM (inactive) | 51.6 µM (inactive) | 22.4 µM (inactive) | > 100 µM (inactive) | 26.2 µM (inactive) | 26.4 µM (inactive) | 20.6 µM (inactive) | 41.2 µM (inactive) | 31.8 µM (inactive) | 34.2 µM (inactive) | 62.7 µM (inactive) | 27.2 µM (inactive) | > 100 µM (inactive)
COc1ccc(C2=NOC(N)(c3ccc(OC)cc3)C2)cc1 (stereo not given) | > 100 µM (inactive) | > 100 µM (inactive) | > 100 µM (inactive) | > 100 µM (inactive) | > 100 µM (inactive) | > 100 µM (inactive) | > 100 µM (inactive) | 56.9 µM (inactive) | > 100 µM (inactive) | > 100 µM (inactive) | > 100 µM (inactive) | > 100 µM (inactive) | > 100 µM (inactive) | > 100 µM (inactive) | > 100 µM (inactive) | > 100 µM (inactive) | > 100 µM (inactive) | > 100 µM (inactive) | > 100 µM (inactive) | > 100 µM (inactive)
COc1cc(C)cc2c1c(=O)c1ccccc1n2C | 19 µM (inactive) | 30 µM (inactive) | 16.4 µM (inactive) | 28.7 µM (inactive) | 40.4 µM (inactive) | 41.7 µM (inactive) | 37.9 µM (inactive) | 25 µM (inactive) | 33.9 µM (inactive) | 20.2 µM (inactive) | 34.8 µM (inactive) | 32.7 µM (inactive) | 49.3 µM (inactive) | 19.7 µM (inactive) | 34.7 µM (inactive) | 35.4 µM (inactive) | 37.5 µM (inactive) | 33.8 µM (inactive) | 46.2 µM (inactive) | 60 µM (inactive)
Cc1c(/C=N/NC(=S)Nc2ccc(Cl)cc2)c(=O)n(-c2ccccc2)n1C | > 100 µM (inactive) | 24.9 µM (inactive) | 19.8 µM (inactive) | > 100 µM (inactive) | 33.7 µM (inactive) | 15.9 µM (inactive) | 0.0258 µM (active) | 20.1 µM (inactive) | 15.5 µM (inactive) | 15 µM (inactive) | > 56.5 µM (inactive) | 25.4 µM (inactive) | 42.7 µM (inactive) | 39.1 µM (inactive) | > 62.8 µM (inactive) | > 100 µM (inactive) | > 82.6 µM (inactive) | 17.3 µM (inactive) | > 78.5 µM (inactive) | 18.2 µM (inactive)
COC(=O)c1c(CC(Cc2ccc3c(c2)CCCC3)C(=O)O)ccc2c1CCCC2 (stereo not given) | 43.2 µM (inactive) | 17.9 µM (inactive) | 31.6 µM (inactive) | 33 µM (inactive) | 34.1 µM (inactive) | 36.4 µM (inactive) | 40.9 µM (inactive) | 34.4 µM (inactive) | 37.2 µM (inactive) | 22.5 µM (inactive) | 43.8 µM (inactive) | 21.9 µM (inactive) | 39.6 µM (inactive) | 27.6 µM (inactive) | 42.9 µM (inactive) | 34.2 µM (inactive) | 36.9 µM (inactive) | 17.9 µM (inactive) | 40.7 µM (inactive) | 41 µM (inactive)
C1=N\c2ccc(cc2)/N=C\c2ccc(cc2)OCc2cccc(n2)COc2ccc/1cc2 | > 100 µM (inactive) | > 100 µM (inactive) | > 100 µM (inactive) | > 100 µM (inactive) | > 100 µM (inactive) | > 100 µM (inactive) | > 100 µM (inactive) | > 100 µM (inactive) | > 100 µM (inactive) | > 100 µM (inactive) | > 100 µM (inactive) | > 100 µM (inactive) | > 100 µM (inactive) | > 100 µM (inactive) | > 100 µM (inactive) | > 100 µM (inactive) | > 100 µM (inactive) | > 100 µM (inactive) | > 100 µM (inactive) | > 100 µM (inactive)
CCc1c[n+]([O-])c(C)cc1[N+](=O)[O-] | 44.2 µM (inactive) | 26.3 µM (inactive) | 90.8 µM (inactive) | 82.8 µM (inactive) | 56.1 µM (inactive) | 78.3 µM (inactive) | > 100 µM (inactive) | > 100 µM (inactive) | 99.5 µM (inactive) | > 100 µM (inactive) | > 100 µM (inactive) | 20.7 µM (inactive) | 28 µM (inactive) | 33.5 µM (inactive) | 40.2 µM (inactive) | 57.9 µM (inactive) | 53.7 µM (inactive) | > 100 µM (inactive) | 33.3 µM (inactive) | > 100 µM (inactive)
CCOC(=O)C(Cc1cccn1C(=O)OC(C)(C)C)[N+](=O)[O-] (stereo not given) | 26.7 µM (inactive) | 20.9 µM (inactive) | 37.7 µM (inactive) | 22.3 µM (inactive) | 32 µM (inactive) | 23.7 µM (inactive) | 30.8 µM (inactive) | 21.2 µM (inactive) | 20.8 µM (inactive) | 22.1 µM (inactive) | 23.8 µM (inactive) | 24.3 µM (inactive) | 26.9 µM (inactive) | 20.5 µM (inactive) | 19.2 µM (inactive) | 26.6 µM (inactive) | 23.9 µM (inactive) | 44.7 µM (inactive) | 23.8 µM (inactive) | > 100 µM (inactive)
CC(C)C(/C=C/c1ccccc1)=N\NC(=S)NN | 26.6 µM (inactive) | 31.5 µM (inactive) | 30.6 µM (inactive) | 98.2 µM (inactive) | 51.1 µM (inactive) | > 100 µM (inactive) | > 96.2 µM (inactive) | 33 µM (inactive) | > 67.9 µM (inactive) | > 51.1 µM (inactive) | > 100 µM (inactive) | 40.6 µM (inactive) | > 100 µM (inactive) | 14.2 µM (inactive) | > 100 µM (inactive) | 49.5 µM (inactive) | > 100 µM (inactive) | 41.6 µM (inactive) | 66.5 µM (inactive) | > 94.4 µM (inactive)
Nc1ccn([C@H]2CO[C@@H](CO)O2)c(=O)n1 | 17.4 µM (inactive) | 1.39 µM (inactive) | 1.48 µM (inactive) | 15 µM (inactive) | 1.35 µM (inactive) | > 100 µM (inactive) | 32.7 µM (inactive) | 18.9 µM (inactive) | 10.5 µM (inactive) | 4.46 µM (inactive) | 27.9 µM (inactive) | 1.58 µM (inactive) | 0.0658 µM (active) | > 94 µM (inactive) | 0.83 µM (active) | 20.8 µM (inactive) | 1.95 µM (inactive) | 3.88 µM (inactive) | > 56.6 µM (inactive) | 3.77 µM (inactive)
